Assay results from patent US5151414A, “Phenoxyethyl amine compounds active on the cardiovascular system” (SIMES Societa Italiana Medicinali e Sintetici S.p.A., priority 1987, dated 1992).

Assays:
[1] = target: dopaminergic receptor (isolated membranes of rat striated muscle); experiment: receptor binding test, dopaminergic "in vitro" receptor affinity on isolated membranes of rat striated muscle
Description: (§1) Furthermore, the compounds of formula I show a remarkable dopaminergic activity in addition to an α1 -antagonistic effect. The dopaminergic activity has been evaluated by receptor binding tests as "in vitro" receptor affinity on isolated membranes of rat striated muscle and by pharmacological tests as "in vitro" inhibition of the answer to electric stimulation of cat right atrium.

[2] = test system: dopaminergic activity, cat right atrium; experiment: "in vitro" inhibition of the answer to electric stimulation of cat right atrium (dopaminergic activity); type: biochemical
Description: as §1

[3] = target: α1 receptor (rat cerebral cortex); experiment: α1 receptor binding on rat cerebral cortex
Description: (§2) The α1 -antagonistic activity has been evaluated as receptor binding on rat cerebral cortex and as antagonism to contraction induced by phenylephrine (α1 -agonist) on rabbit aorta.

α1 (rabbit aorta) = experiment: antagonism to contraction induced by phenylephrine (α1-agonist) on rabbit aorta; type: biochemical
Description: as §2

[4] = effects on systemic arterial pressure, heart rate and vascular resistances in anesthetized dog, intravenous route; type: in vivo
Protocol: In fact, the compounds object of the present invention reduce meaningfully systemic arterial pressure after administration by intravenous route in anesthetized dog (see example 11). The compound N-[2-(2,6-dichlorophenoxy)-ethyl]-N-propyl-2-amino-5,6-dihydroxy-1,2,3,4-tetrahydronaphthalene hydrochloride (Compound A) was tested by intravenous route in anesthetized dog in order to evaluate the effects on systemic arterial pressure. Compound A, administered by intravenous route at the doses of 10 and 20 μg/kg, reduced systemic arterial pressure as well as peripheral resistances and particularly femoral resistances, the last reduction being associated also with an increase of the corresponding haematic flow.

For `CCCN(CCOc1c(Cl)cccc1Cl)C1CCc2c(ccc(O)c2O)C1.Cl` (stereo not drawn) [Compound A, N-[2-(2,6-dichlorophenoxy)-ethyl]-N-propyl-2-amino-5,6-dihydroxy-1,2,3,4-tetrahydronaphthalene hydrochloride], the IC50 [1] was 251 nM, the IC50 [2] was 8500 nM and the IC50 [3] was 76 nM. For the same molecule, the “pA2 (rabbit aorta)” value (α1 (rabbit aorta)) was 7.42, the Renal resistances ([4]; 10 μg/kg iv, basal 1.007 + 0.186) was 0.871 ± 0.162 mmHg/ml/min and the Femoral resistances ([4]; 10 μg/kg iv, basal 2.471 + 0.260) was 1.802 ± 0.471 mmHg/ml/min. The a. femoral flow ([4]; 10 μg/kg iv, basal 54.1 + 3.8) was 67.4 ± 12.4 mL/min, the “Arterial pressure Mn” value ([4]; 10 μg/kg iv, basal 118 + 5) was 102 ± 8 mmHg and the “Arterial pressure Md” value ([4]; 10 μg/kg iv, basal 136 + 4) was 119 ± 7 mmHg. For the same molecule, the a. renal flow ([4]; 10 μg/kg iv, basal 143.7 + 23.7) was 144.7 ± 20.6 mL/min, the Heart rate ([4]; 10 μg/kg iv, basal 152 + 11) was 161 ± 12 beats/min and the “Arterial pressure Mx” value ([4]; 10 μg/kg iv, basal 160 + 10) was 145 ± 8 mmHg. It also gave a Renal resistances ([4]; 20 μg/kg iv, basal 1.246 + 0.389) of 1.082 ± 0.367 mmHg/ml/min, a Femoral resistances ([4]; 20 μg/kg iv, basal 2.445 + 0.787) of 1.274 ± 0.171 mmHg/ml/min and an a. femoral flow ([4]; 20 μg/kg iv, basal 65.6 + 20.0) of 87.8 ± 20.0 mL/min. For the same molecule, the “Arterial pressure Mn” value ([4]; 20 μg/kg iv, basal 118 + 9) was 96 ± 11 mmHg, the a. renal flow ([4]; 20 μg/kg iv, basal 129.9 + 31.8) was 128.9 ± 31.3 mL/min and the “Arterial pressure Md” value ([4]; 20 μg/kg iv, basal 132 + 8) was 109 ± 9 mmHg. The Heart rate ([4]; 20 μg/kg iv, basal 136 + 13) was 146 ± 17 beats/min, the “Arterial pressure Mx” value ([4]; 20 μg/kg iv, basal 148 + 8) was 124 ± 9 mmHg and the “femoral resistances (in words)” value ([4]; intravenous, 10 and 20 μg/kg) was “reduced”. For the same molecule, the “haematic flow, femoral (in words)” value ([4]; intravenous, 10 and 20 μg/kg) was “increase”, the “peripheral resistances (in words)” value ([4]; intravenous, 10 and 20 μg/kg) was “reduced” and the “systemic arterial pressure (in words)” value ([4]; intravenous, 10 and 20 μg/kg) was “reduced”.
